Data: patent US20250333682A1, “DYNAMIC HYDROGEL AND PULMONARY FIBROSIS BIONIC CHIP” (Anivance AI Corporation, priority 2024, published 2025)

System: HFL-1 cells
Assay: antifibrotic drug efficacy model on lung fibrosis bionic chip, immunofluorescence staining
Type: cell-based, human
Settings: TGF-β-induced HFL-1 on dynamic hydrogel with laser dynamic response
Experimental: Using the dynamic hydrogel obtained from different crosslinking times as the cell culture substrate for fibrosis models (human fetal lung fibroblasts, HFL-1), the expression of α-SMA protein is used as an indicator of myofibroblast differentiation. After culturing the HFL-1 cells for one day, 10 ng/ml of TGF-β is added to stimulate the cells as a control group for α-SMA expression. After two days of culture, a laser device is used to irradiate the cells for 24 hours at frequencies of 0.2 Hz (On-1.5 s/Off-3.5 s) and 0.3 Hz ([…]), respectively. The cells are then fixed and stained for observation. In FIG. 11, “10 min” and “25 min” indicate the fluorescence images of the dynamic hydrogel 5 obtained by UV irradiation for 10 minutes and 25 minutes, respectively.
Furthermore, since ECM remodeling in lung fibrosis patients leads to tissue stiffness, and stiff substrates apply mechanical stress to cells, the activity of YAP occurs through nuclear translocation, with YAP cellular localization depending on mechanical stress. Therefore, HFL-1 cells are cultured in dynamic hydrogels of different hardness (simulating substrates of varying stiffness) and dynamic response environments with laser frequencies to evaluate the effects of substrate hardness and dynamic response on the localization of YAP in lung fibroblasts. […]

Cc1ccc(=O)n(-c2ccccc2)c1 [pirfenidone]
expression of the fibrotic marker α-SMA (pirfenidone 5.3 mM, two days drug, FIG. 13(a)): inhibited | inhibiting the mechanical response marker YAP (pirfenidone, FIG. 13(b)): less significant effect
